According to patent US20170158702A1, “MULTIVALENT RAS BINDING COMPOUNDS” (KYRAS THERAPEUTICS, INC., priority 2015, published 2017):
Where a name gives a salt, the structure may show the parent alone.

Experiments:
Format in all cases: cell-based
MIA PaCa-2 = test: Viability assay with MIA PaCa-2; conditions: MIA PaCa-2, viability assay per Example 57
Outline: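 MIA PaCa-2 cells were seeded at 1200/well, allowed to adhere overnight, then treated in triplicate with 9-point 2-fold compound dilutions at 0.5% final DMSO. Viability was measured as cellular ATP by CellTiter-Glo luminescence 72 h after compound addition.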

NCI-H460 = test: Viability assay with NCI-H460 (CellTiter-Glo cytotoxicity assay, 72 h); conditions: NCI-H460 cell line, 72 h after compounds addition
Outline: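 NCI-H460 cells, RPMI 1640 + 10% FBS, seeded 1200/well and adhered overnight, then exposed to compounds at 9 points, 2-fold dilution, in triplicate, 0.5% DMSO final. Cellular ATP measured by CellTiter-Glo luminescence 72 h after addition.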

U2OS = test: Viability assay with U2OS; conditions: viability assay per Example 57
Procedure: (§1) NCI-H460 (Epithelial lung tissue; carcinoma; large cell lung cancer) were cultured in RPMI Medium 1640 (Invitrogen-22400105) supplemented with 10% fetal bovine serum (FBS; Invitrogen-10099141). All the cell lines were maintained in a humidified incubator at 37° C. with 5% CO2. Cell culture media and supplements were purchased from Invitrogen, and tissue culture flasks were purchased from Corning, 96-well plates were purchased from Greiner. CellTiter-Glo Luminescent Cell Viability Assay kits were purchased from Promega (Promega-G7573), cells counter Vi-Cell was purchased from Beckman, D300e digital dispenser was purchased from Tecan, detection instrument Envision was purchased from PerkinElmer.
(§2) Paclitaxel was purchased from SELLECK, test compounds, such as any one of the compounds disclosed herein, attained solubility in DMSO and when diluted into culture media. DMSO, solutions containing the test compounds, and culture media were warmed to 37° C. or room temperature for the solution preparation and dilutions.
(§3) NCI-H460 Cell line were seeded in 96-well plates (1200/well) and allowed to adhere to overnight (100 uL/well), for drug treatments with 2 fold dilution, 9 dose points, triplicates or vehicle control, compound stock solutions were prepared in DMSO and use D300e digital dispenser to add compounds to the wells to give the indicated final drug concentrations. Final DMSO concentration was 0.5%. Cellular ATP concentrations were assessed by using the CellTiter-Glo Cell Viability Assay as per the manufacturer's instructions 72 h after compounds addition. Additional cells lines were assayed with any one of the compounds disclosed herein according to the procedures described for the viability assay with NCI-H460.
The viability assay with U2OS (epithelial bone tissue; osteosarcoma) was performed with compounds listed in Table 17 according to the procedures described in Example 57.

HT-29 = test: Viability assay with HT-29; conditions: HT-29, viability assay per Example 57
Outline: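 Cells seeded 1200/well, adhered overnight, then treated with 9-point 2-fold compound dilutions in triplicate (0.5% final DMSO). Viability taken as cellular ATP by CellTiter-Glo luminescence 72 h after compound addition.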

NCI-H2023 = test: Viability assay with NCI-H2023; conditions: NCI-H2023, viability assay per Example 57
Procedure: as §1, §2, §3
A viability assay with NCI-H2023 (stage 3A, adenocarcinoma; non-small cell lung cancer) was performed with compounds listed in Table 16 according to the procedures described in Example 57.

EC50 (MIA PaCa-2) | EC50 (U2OS) | EC50 (HT-29) | EC50 (NCI-H2023) | SMILES | EC50 (NCI-H460)
≤ 5 µM | ≤ 5 µM |  |  | CN(CCNCc1ccc2c(c1)c(-c1ccc(OC(F)(F)F)cc1)cn2CCCN)Cc1ccccc1Cl [C173; HCl] | ≤ 5 µM
≤ 5 µM | ≤ 5 µM |  |  | CN(CCN(C)Cc1ccccc1Cl)Cc1ccc2c(c1)c(-c1ccc(OC(F)(F)F)cc1)cn2CCCN [C172; HCl] | ≤ 5 µM
≤ 5 µM | ≤ 5 µM |  |  | N#Cc1cccc(-c2cccc(Cl)c2CN2CCN(Cc3ccc4c(c3)c(-c3cccc(C#N)c3)cn4CCCN)CC2)c1 [C4; HCl] | ≤ 5 µM
≤ 5 µM | ≤ 5 µM | ≤ 5 µM |  | NCCCn1cc(-c2ccc(OC(F)(F)F)cc2)c2cc(CN3CCC4(CCN(Cc5ccccc5Cl)CC4)C3)ccc21 [C169; HCl] | ≤ 5 µM
 | ≤ 5 µM | ≤ 5 µM |  | NCCCn1cc(-c2ccccc2CN)c2cc(CN3CCN(Cc4c(Cl)cccc4Cl)CC3)ccc21 [C162; HCl] | 
≤ 5 µM | ≤ 5 µM |  |  | CCc1ccc(-c2cn(CCCN)c3ccc(CN4CC5CCC(C4)N5Cc4ccccc4Cl)cc23)cc1 [C157; HCl] | ≤ 5 µM
≤ 5 µM | ≤ 5 µM |  |  | COc1cccc(CN2CCN(Cc3ccc4c(c3)c(-c3ccc(OC(F)(F)F)cc3)cn4CCCN)CC2)c1Cl [C12; HCl] | ≤ 5 µM
≤ 5 µM | ≤ 5 µM |  |  | NCCCn1cc(-c2ccc(OC(F)(F)F)cc2)c2cc(CN3CCN(Cc4cccc(OC(F)(F)F)c4)CC3)ccc21 [C163; HCl] | ≤ 5 µM
≤ 5 µM | ≤ 5 µM |  |  | NCCCn1cc(-c2ccc(OC(F)(F)F)cc2)c2cc(CN3CCN(Cc4cccc(C(F)(F)F)c4Cl)CC3)ccc21 [C155; HCl] | ≤ 5 µM
≤ 5 µM |  |  | ≤ 5 µM | NCCCn1cc(-c2ccc(N)cc2)c2cc(CN3CCN(Cc4c(Cl)cccc4Cl)CC3)ccc21 [C50; HCl] | ≤ 5 µM
≤ 5 µM | ≤ 5 µM |  |  | NCCCn1cc(-c2ccc(OC(F)(F)F)cc2)c2cc(CN3CCN(CC(F)(F)F)CC3)ccc21 [C160; HCl] | ≤ 5 µM
≤ 5 µM |  |  | ≤ 5 µM | NCCCn1cc(-c2ccc(OC(F)(F)F)cc2)c2cc(CN3CCN(Cc4cccc(F)c4Cl)CC3)ccc21 [C19; HCl] | ≤ 5 µM
≤ 5 µM |  |  | ≤ 5 µM | NC1CCC(c2cn(-c3ccc(OC(F)(F)F)cc3)c3cc(CN4CCN(Cc5c(Cl)cccc5Cl)CC4)ccc23)C1 (centres unmarked) [C30; HCl] | ≤ 5 µM
≤ 5 µM | ≤ 5 µM |  |  | NCCCn1cc(-c2ccc(OC(F)(F)F)cc2)c2cc(CC3CCN(Cc4ccccc4Cl)CC3)ccc21 [C159; HCl] | ≤ 5 µM
≤ 5 µM | ≤ 5 µM |  |  | NCCCn1cc(-c2ccc(OC(F)(F)F)cc2)c2cc(CN3CCN(Cc4cc(F)ccc4Cl)CC3)ccc21 [C165; HCl] | ≤ 5 µM
≤ 5 µM |  |  | ≤ 5 µM | NC1(C(=O)NCCCn2cc(-c3ccccc3)c3cc(CN4CCN(Cc5c(Cl)cccc5Cl)CC4)ccc32)CCNCC1 [C24; HCl] | ≤ 5 µM
≤ 5 µM | ≤ 5 µM |  |  | NCCCn1cc(-c2ccc(OC(F)(F)F)cc2)c2cc(CN3CCN(Cc4cccc(Cl)c4)CC3)ccc21 [C9; HCl] | ≤ 5 µM
≤ 5 µM |  |  | ≤ 5 µM | NC1(C(=O)NCCCn2cc(-c3ccc(OC(F)(F)F)cc3)c3cc(CN4CCN(c5ccccc5)CC4)ccc32)CCNCC1 [C38; HCl] | ≤ 5 µM
≤ 5 µM | ≤ 5 µM |  | ≤ 5 µM | NCCCCn1cc(-c2ccc(OC(F)(F)F)cc2)c2cc(CN3CCN(Cc4c(Cl)cccc4Cl)CC3)ccc21 [C43; HCl] | ≤ 5 µM

The remaining lines, values behind:

SMILES | EC50 (MIA PaCa-2) | EC50 (U2OS) | EC50 (HT-29) | EC50 (NCI-H2023) | EC50 (NCI-H460)
COc1ccccc1-c1cn(CCCN)c2ccc(CN3CCN(Cc4c(Cl)cccc4Cl)CC3)cc12 [C2; HCl] | ≤ 5 µM | ≤ 5 µM |  |  | ≤ 5 µM
NCCCn1cc(-c2ccc(CN)cc2)c2cc(CN3CCN(Cc4c(Cl)cccc4Cl)CC3)ccc21 [C10; Formic acid] | ≤ 5 µM | ≤ 5 µM |  |  | ≤ 5 µM
COc1ccc(-c2cn(CCCN)c3ccc(CN4CC5CCC(C4)N5Cc4ccccc4Cl)cc23)cc1 [C158; HCl] | ≤ 5 µM | ≤ 5 µM |  |  | ≤ 5 µM
NCCCn1cc(-c2ccc(OC(F)(F)F)cc2)c2cc(CN3CCC(Cc4ccccc4Cl)CC3)ccc21 [C3; HCl] | ≤ 5 µM | ≤ 5 µM |  |  | ≤ 5 µM
CC(C)(c1ccccc1Cl)N1CCN(Cc2ccc3c(c2)c(-c2ccc(OC(F)(F)F)cc2)cn3CCCN)CC1 [C166; Formic Acid] | ≤ 5 µM | ≤ 5 µM | ≤ 5 µM |  | ≤ 5 µM
COc1ccc(F)c(CN2CCN(Cc3ccc4c(c3)c(-c3ccc(OC(F)(F)F)cc3)cn4CCCN)CC2)c1 [C1; HCl] | ≤ 5 µM | ≤ 5 µM |  |  | ≤ 5 µM
NCCN(CCN)CCCn1cc(-c2ccc(OC(F)(F)F)cc2)c2cc(CN3CCN(Cc4c(Cl)cccc4Cl)CC3)ccc21 [C7; Formic acid] | ≤ 5 µM | ≤ 5 µM |  |  | ≤ 5 µM
NCCCn1cc(-c2ccc(OC(F)(F)F)cc2)c2cc(CN3CCN(Cc4cc(Cl)ccc4Cl)CC3)ccc21 [C156; HCl] | ≤ 5 µM | ≤ 5 µM | ≤ 5 µM |  | ≤ 5 µM
NCCCn1cc(-c2ccc(OC(F)(F)F)cc2)c2cc(CN3CCN(Cc4cccc(Cl)c4Cl)CC3)ccc21 [C164; HCl] | ≤ 5 µM | ≤ 5 µM |  |  | ≤ 5 µM
NCCCn1cc(-c2ccccc2Cl)c2cc(CN3CCN(Cc4c(Cl)cccc4Cl)CC3)ccc21 [C167; HCl] | ≤ 5 µM | ≤ 5 µM |  |  | ≤ 5 µM
N#Cc1ccccc1-c1cn(CCCN)c2ccc(CN3CCN(Cc4c(Cl)cccc4Cl)CC3)cc12 [C8; HCl] | ≤ 5 µM | ≤ 5 µM |  |  | ≤ 5 µM
COc1cc(CN2CCN(Cc3ccc4c(c3)c(-c3ccc(OC(F)(F)F)cc3)cn4CCCN)CC2)cc(OC)c1 [C11; HCl] | ≤ 5 µM | ≤ 5 µM |  |  | ≤ 5 µM
NCCCn1cc(-c2ccc(OC(F)(F)F)cc2)c2cc(CN3CCC4(CC3)CCN(Cc3ccccc3Cl)C4)ccc21 [C5; HCl] | ≤ 5 µM | ≤ 5 µM |  |  | ≤ 5 µM
COc1ccc(-c2cn(CCCN)c3ccc(CN4CCN(Cc5c(Cl)cccc5Cl)CC4)cc23)cc1 [C22; Formic acid] | ≤ 5 µM | ≤ 5 µM |  | ≤ 5 µM | ≤ 5 µM
NCCCn1cc(-c2cccc(CN)c2)c2cc(CN3CCN(Cc4c(Cl)cccc4Cl)CC3)ccc21 [C168; HCl] | ≤ 5 µM | ≤ 5 µM | ≤ 5 µM |  | ≤ 5 µM
NC1(C(=O)NCCCn2cc(-c3ccc(O)cc3)c3cc(CN4CCN(Cc5c(Cl)cccc5Cl)CC4)ccc32)CCNCC1 [C36; HCl] | 10 to 30 µM |  |  | > 30 µM | > 30 µM
